Assays:
Assay in all cases: relative viability (nuclei count vs DMSO), 5 days (fraction); higher = more cells survive
NCI-H520 = system: NCI-H520
Outline: (§1)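 Relative viability was taken as the ratio of nuclei in treated wells to nuclei in vehicle wells. Lung cancer cell lines in 1536-well plates received compounds by pin tool one day after seeding, either one drug alone or a fixed anchor-drug dose plus five library-drug doses (not always all listed) in √10 steps. Nuclei were counted on 4× images after 5 days of treatment, and values are medians of duplicate plates.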

EKVX = system: EKVX
Outline: as §1

HCC-827 = system: HCC-827
Outline: as §1

SW 1573 = system: SW 1573
Outline: as §1

RERF-LC-KJ = system: RERF-LC-KJ
Outline: as §1

NCI-H322M = system: NCI-H322M
Outline: as §1

NCI-H2405 = system: NCI-H2405
Outline: as §1

NCI-H1355 = system: NCI-H1355
Outline: as §1

ABC-1 = system: ABC-1
Outline: as §1

NCI-H1437 = system: NCI-H1437
Outline: as §1

H3255 = system: H3255
Outline: as §1

NCI-H2228 = system: NCI-H2228
Outline: as §1

LK-2 = system: LK-2
Outline: as §1

PC-3 [JPC-3] = system: PC-3 [JPC-3]
Outline: as §1

HCC-15 = system: HCC-15
Outline: as §1

NCI-H1650 = system: NCI-H1650
Outline: as §1

NCI-H2342 = system: NCI-H2342
Outline: as §1

NCI-H661 = system: NCI-H661
Outline: as §1

COR-L23 = system: COR-L23
Outline: as §1

NCI-H1734 = system: NCI-H1734
Outline: as §1

CAL-12T = system: CAL-12T
Outline: as §1

PC-14 = system: PC-14
Outline: as §1

## CC1(C)CCC(c2ccc(Cl)cc2)=C(CN2CCN(c3ccc(C(=O)NS(=O)(=O)c4ccc(N[C@H](CCN5CCOCC5)CSc5ccccc5)c(S(=O)(=O)C(F)(F)F)c4)cc3)CC2)C1 [Navitoclax] + CC(=O)c1c(C)c2cnc(Nc3ccc(N4CCNCC4)cn3)nc2n(C2CCCC2)c1=O [Palbociclib] (partner 0.5 µM)
NCI-H520; first compound 0.005 µM
  relative viability: 0.273
NCI-H520; first compound 0.01581 µM
  relative viability: 0.25
NCI-H520; first compound 0.05 µM
  relative viability: 0.18
NCI-H520; first compound 0.1581 µM
  relative viability: 0.182
NCI-H520; first compound 0.5 µM
  relative viability: 0.217
EKVX; first compound 0.005 µM
  relative viability: 0.44
EKVX; first compound 0.01581 µM
  relative viability: 0.405
EKVX; first compound 0.05 µM
  relative viability: 0.422
EKVX; first compound 0.1581 µM
  relative viability: 0.403
EKVX; first compound 0.5 µM
  relative viability: 0.388
HCC-827; first compound 0.005 µM
  relative viability: 0.582
HCC-827; first compound 0.01581 µM
  relative viability: 0.528
HCC-827; first compound 0.05 µM
  relative viability: 0.374
HCC-827; first compound 0.1581 µM
  relative viability: 0.477
HCC-827; first compound 0.5 µM
  relative viability: 0.437
SW 1573; first compound 0.005 µM
  relative viability: 0.417
SW 1573; first compound 0.01581 µM
  relative viability: 0.41
SW 1573; first compound 0.05 µM
  relative viability: 0.448
SW 1573; first compound 0.1581 µM
  relative viability: 0.399
SW 1573; first compound 0.5 µM
  relative viability: 0.38
RERF-LC-KJ; first compound 0.005 µM
  relative viability: 1.06
RERF-LC-KJ; first compound 0.01581 µM
  relative viability: 1.01
RERF-LC-KJ; first compound 0.05 µM
  relative viability: 1.14
RERF-LC-KJ; first compound 0.1581 µM
  relative viability: 1.07
RERF-LC-KJ; first compound 0.5 µM
  relative viability: 1.01
NCI-H322M; first compound 0.005 µM
  relative viability: 0.522
NCI-H322M; first compound 0.01581 µM
  relative viability: 0.534
NCI-H322M; first compound 0.05 µM
  relative viability: 0.476
NCI-H322M; first compound 0.1581 µM
  relative viability: 0.479
NCI-H322M; first compound 0.5 µM
  relative viability: 0.499
NCI-H2405; first compound 0.005 µM
  relative viability: 0.501
NCI-H2405; first compound 0.01581 µM
  relative viability: 0.562
NCI-H2405; first compound 0.05 µM
  relative viability: 0.562
NCI-H2405; first compound 0.1581 µM
  relative viability: 0.511
NCI-H2405; first compound 0.5 µM
  relative viability: 0.506
NCI-H1355; first compound 0.005 µM
  relative viability: 0.381
NCI-H1355; first compound 0.01581 µM
  relative viability: 0.438
NCI-H1355; first compound 0.05 µM
  relative viability: 0.429
NCI-H1355; first compound 0.1581 µM
  relative viability: 0.385
NCI-H1355; first compound 0.5 µM
  relative viability: 0.409
ABC-1; first compound 0.005 µM
  relative viability: 0.896
ABC-1; first compound 0.01581 µM
  relative viability: 0.845
ABC-1; first compound 0.05 µM
  relative viability: 0.691
ABC-1; first compound 0.1581 µM
  relative viability: 0.747
ABC-1; first compound 0.5 µM
  relative viability: 0.639
NCI-H1437; first compound 0.005 µM
  relative viability: 0.295
NCI-H1437; first compound 0.01581 µM
  relative viability: 0.317
NCI-H1437; first compound 0.05 µM
  relative viability: 0.2
NCI-H1437; first compound 0.1581 µM
  relative viability: 0.291
NCI-H1437; first compound 0.5 µM
  relative viability: 0.308
H3255; first compound 0.005 µM
  relative viability: 0.304
H3255; first compound 0.01581 µM
  relative viability: 0.329
H3255; first compound 0.05 µM
  relative viability: 0.3
H3255; first compound 0.1581 µM
  relative viability: 0.312
H3255; first compound 0.5 µM
  relative viability: 0.316
NCI-H2228; first compound 0.005 µM
  relative viability: 0.915
NCI-H2228; first compound 0.01581 µM
  relative viability: 0.986
NCI-H2228; first compound 0.1581 µM
  relative viability: 0.703
NCI-H2228; first compound 0.5 µM
  relative viability: 0.687
LK-2; first compound 0.005 µM
  relative viability: 0.588
LK-2; first compound 0.01581 µM
  relative viability: 0.925
LK-2; first compound 0.05 µM
  relative viability: 0.661
LK-2; first compound 0.1581 µM
  relative viability: 0.502
LK-2; first compound 0.5 µM
  relative viability: 0.758
PC-3 [JPC-3]; first compound 0.005 µM
  relative viability: 0.576
PC-3 [JPC-3]; first compound 0.01581 µM
  relative viability: 0.575
PC-3 [JPC-3]; first compound 0.05 µM
  relative viability: 0.545
PC-3 [JPC-3]; first compound 0.1581 µM
  relative viability: 0.531
PC-3 [JPC-3]; first compound 0.5 µM
  relative viability: 0.506
HCC-15; first compound 0.005 µM
  relative viability: 0.738
HCC-15; first compound 0.01581 µM
  relative viability: 0.77
HCC-15; first compound 0.05 µM
  relative viability: 0.655
HCC-15; first compound 0.1581 µM
  relative viability: 0.773
HCC-15; first compound 0.5 µM
  relative viability: 0.687
NCI-H1650; first compound 0.005 µM
  relative viability: 0.385
NCI-H1650; first compound 0.01581 µM
  relative viability: 0.456
NCI-H1650; first compound 0.05 µM
  relative viability: 0.315
NCI-H1650; first compound 0.1581 µM
  relative viability: 0.346
NCI-H1650; first compound 0.5 µM
  relative viability: 0.316
NCI-H2342; first compound 0.005 µM
  relative viability: 0.611
NCI-H2342; first compound 0.01581 µM
  relative viability: 0.531
NCI-H2342; first compound 0.05 µM
  relative viability: 0.541
NCI-H2342; first compound 0.1581 µM
  relative viability: 0.477
NCI-H2342; first compound 0.5 µM
  relative viability: 0.629
NCI-H661; first compound 0.005 µM
  relative viability: 0.426
NCI-H661; first compound 0.01581 µM
  relative viability: 0.451
NCI-H661; first compound 0.05 µM
  relative viability: 0.387
NCI-H661; first compound 0.1581 µM
  relative viability: 0.435
NCI-H661; first compound 0.5 µM
  relative viability: 0.384
COR-L23; first compound 0.005 µM
  relative viability: 0.36
COR-L23; first compound 0.01581 µM
  relative viability: 0.309
COR-L23; first compound 0.05 µM
  relative viability: 0.28
COR-L23; first compound 0.1581 µM
  relative viability: 0.331
COR-L23; first compound 0.5 µM
  relative viability: 0.278
NCI-H1734; first compound 0.005 µM
  relative viability: 0.339
NCI-H1734; first compound 0.01581 µM
  relative viability: 0.374
NCI-H1734; first compound 0.1581 µM
  relative viability: 0.296
NCI-H1734; first compound 0.5 µM
  relative viability: 0.367
CAL-12T; first compound 0.005 µM
  relative viability: 0.4
CAL-12T; first compound 0.01581 µM
  relative viability: 0.445
CAL-12T; first compound 0.05 µM
  relative viability: 0.409
CAL-12T; first compound 0.1581 µM
  relative viability: 0.496
CAL-12T; first compound 0.5 µM
  relative viability: 0.405
PC-14; first compound 0.005 µM
  relative viability: 0.537
PC-14; first compound 0.01581 µM
  relative viability: 0.466
PC-14; first compound 0.05 µM
  relative viability: 0.607
PC-14; first compound 0.1581 µM
  relative viability: 0.528
PC-14; first compound 0.5 µM
  relative viability: 0.509

— the supplement of paper PMC10307832
